Where two headings read alike, the source gives them in different places.

These results are taken from article PMC8306828 (International Journal of Molecular Sciences, 2021).

Data set [1] concerns Toledo-cis cells. On the set-up: method as in doi:10.1016/j.ica.2016.11.021. Particulars: MTT, 72 h, reposted from previous paper; cited from earlier work.
Data set [2] has as its system A2780cis cells. On the set-up: method as in doi:10.1016/j.ica.2016.11.021. Particulars: MTT, 72 h, reposted from previous paper; cited from earlier work.
Data set [3] relates to human lymphocytes. As to the kind of experiment: MTT cellular viability assay, normal lymphocytes. In kind it is cell-based. As to conditions: for times less toxic for normal lymphocytes in comparison to cisplatin: relative to cisplatin; for IC50: Lymphocytes, MTT, 72 h. On the procedure: The buffy coat fraction of peripheral blood from healthy donors was purchased from the Regional Blood Bank in Lodz, Poland. Mononuclear blood cells were isolated using Lympho-Sep tubes (Biological Industries, Israel). Lymphocytes were cultured in RPMI-1640 medium (Biological Industries, Israel) supplemented with 10% heat-inactivated fetal bovine serum, phytohemaglutinin M solution (PHA-M, Biological Industries), 5 mM Hepes, and 50 µg/mL gentamycin. The cancer cells were seeded in 24-well plates, with 1 mL of cell suspension per well, in the following densities: A2780—10^4 cells/mL; […] Lymphocytes were seeded in 48-well plates, 0.5 mL of cell suspension per well, at −2 × 10^5 cells/mL. The cultures were left overnight to adapt. The next day, the tested compounds were added, pre-dissolved in DMF, and then in a complete culture medium, at concentrations two-fold higher than the final ones. The resulting solutions were added to cell cultures to obtain the demanded concentration. Stock solutions of the compounds were freshly made before every experiment. The final concentration of the solvents in culture medium was 0.2% v/v. […] Then the culture medium was removed, and the purple formazan crystals were dissolved in DMSO. The absorbance was measured at 540 nm on a Spectrostar Nano spectrophotometer with a microplate reader (BMG Labtech, Ortenberg, Germany). The experiments were performed at least in triplicate. The results were transformed to relative values, as the percentage of the solvent control (assumed as 100%) to subtract any toxic effect of DMF.

In data set [4] the test system is Toledo cells. On the set-up: method as in doi:10.1016/j.ica.2016.11.021. Particulars: cited from earlier work.
Data set [5] concerns Toledo-cis cells. The data set can be described thus: MTT cellular viability assay, Toledo-cis. As to conditions: for RF (IC50 Toledo-cis/IC50 Toledo): Resistance factor defined as IC50(resistant)/IC50(sensitive); for IC50: Toledo-cis, MTT, 72 h. It counts as cell-based, human. The procedure: (§1) Cell lines A2780 (human ovarian carcinoma, ECACC cat. No. 93112519), A2780cis (subline resistant to cisplatin, ECACC cat. […] All cell lines were maintained in a humidified incubator, at 37 °C and 5% CO2. The cell lines A2780 and A2780cis were grown as monolayers, and cultures were detached with trypsin and renewed every 3–4 days. Toledo and Toledo-cis were grown in suspension; the cultures were renewed every 3–4 days. The Toledo cell line was kindly provided by Prof. […] The cancer cells were seeded in 24-well plates, with 1 mL of cell suspension per well, in the following densities: A2780—10^4 cells/mL; […] Lymphocytes were seeded in 48-well plates, 0.5 mL of cell suspension per well, at −2 × 10^5 cells/mL. The cultures were left overnight to adapt. The next day, the tested compounds were added, pre-dissolved in DMF, and then in a complete culture medium, at concentrations two-fold higher than the final ones. The resulting solutions were added to cell cultures to obtain the demanded concentration. Stock solutions of the compounds were freshly made before every experiment. The final concentration of the solvents in culture medium was 0.2% v/v. […] Then the culture medium was removed, and the purple formazan crystals were dissolved in DMSO. The absorbance was measured at 540 nm on a Spectrostar Nano spectrophotometer with a microplate reader (BMG Labtech, Ortenberg, Germany). The experiments were performed at least in triplicate. The results were transformed to relative values, as the percentage of the solvent control (assumed as 100%) to subtract any toxic effect of DMF.

Data set [6] has as its system A2780cis cells. As to the kind of experiment: MTT cellular viability assay, A2780cis. It counts as cell-based, human. Particulars: for RF (IC50 A2780cis/IC50 A2780): Resistance factor defined as IC50(resistant)/IC50(sensitive); for IC50: A2780cis, MTT, 72 h. On the procedure:
as §1

Data set [7] has as its system A2780 cells. On the set-up: method as in doi:10.1016/j.ica.2016.11.021. As to conditions: cited from earlier work.
The subject of data set [8] is human lymphocytes. On the set-up: method as in doi:10.1016/j.ica.2016.11.021. Particulars: MTT, 72 h, reposted from previous paper; cited from earlier work.
Data set [9] relates to A2780 and A2780cis cells. As to the kind of experiment: Mitochondrial potential loss measurement (MitoTracker Red, flow cytometry). It counts as cell-based, human. Particulars: 2 h and 4 h incubation. On the procedure: The loss of mitochondrial transmembrane potential (ΔΨm) occurs early during apoptosis and is often considered as a marker of apoptosis activated by the mitochondrial pathway. MitoTracker Red (Invitrogen, Waltham, MA, USA) dye was used as a probe for ΔΨm, which accumulates in the active mitochondria of living cells: 50 nM, 20 min incubation, at RT. The reduction of Δ Ψm was detected by flow cytometry as a decrease in red fluorescence of the dye in treated cells as compared to untreated cells.

The subject of data set [10] is A2780 and A2780cis cells. As to the kind of experiment: Annexin V apoptosis assay (flow cytometry). It counts as cell-based, human. Particulars: 2 h and 4 h incubation, compared to untreated cells. On the procedure: The apoptotic cells were identified by flow cytometry using the Annexin-V/FITC (BDBiosciences, San Diego, CA, USA) assay according to the manufacturer’s instructions. […] PI only stains the nuclei of damaged cells with permeable plasma membranes. Briefly, the cells were incubated with tested compounds for 2 and 4 h. After incubation, the cells were washed twice with cold PBS and then resuspended in 100 μL of binding buffer, containing 2 μL of FITC conjugated annexin-V and 10 μg mL^−1 of PI (Becton-Dickinson, San Jose, CA, USA). Then, the preparations were incubated at room temperature, protected from light, for 15 min. Fluorescence was measured immediately after staining by flow cytometry using FL1 (green, annexin-V) and FL3 (red, PI) standard fluorescent filters.

Data set [11] relates to A2780 cells. As to the kind of experiment: MTT cellular viability assay, A2780. In kind it is cell-based, human. Particulars: 72 h. On the procedure:
(§2) Cell lines A2780 (human ovarian carcinoma, ECACC cat. No. 93112519), A2780cis (subline resistant to cisplatin, ECACC cat. No. 93112517), Toledo (human diffuse large cell lymphoma, ATCC CRL-2631TM), and Toledo-cis (cisplatin-resistant subline obtained from Toledo in our laboratory) were cultured in RPMI-1640 medium (Biological Industries, Kibbutz Beit-Haemek, Israel) supplemented with 10% heat-inactivated fetal bovine serum, 5 mM Hepes, and 50 µg/mL gentamycin. All cell lines were maintained in a humidified incubator, at 37 °C and 5% CO2. The cell lines A2780 and A2780cis were grown as monolayers, and cultures were detached with trypsin and renewed every 3–4 days. Toledo and Toledo-cis were grown in suspension; the cultures were renewed every 3–4 days. The Toledo cell line was kindly provided by Prof. Piotr Smolewski from the Department of Experimental Hematology, Medical University of Lodz, ul Ciołkowskiego 2, 93–510 Łódź, Poland, on the conditions of collaboration. […]
(§3) The cancer cells were seeded in 24-well plates, with 1 mL of cell suspension per well, in the following densities: A2780—10^4 cells/mL; A2780cis—1.5 × 10^4 cells/mL; and Toledo and Toledo-cis—5 × 10^4 cells/mL. […] The absorbance was measured at 540 nm on a Spectrostar Nano spectrophotometer with a microplate reader (BMG Labtech, Ortenberg, Germany). […]

The subject of data set [12] is panel of cancer cells and human lymphocytes. As to the kind of experiment: MTT cellular viability assay, all tested cell lines. As to conditions: range over all tested cell lines, 72 h, read-out: IC50 values towards all tested cell lines. It counts as cell-based. On the procedure:
as §2, §3

Data set [13] has as its system Toledo cells. As to the kind of experiment: MTT cellular viability assay, Toledo. As to conditions: 72 h. It counts as cell-based, human. On the procedure: as §2, §3
Setting [14] is: MTT, 72 h, reposted from previous paper.
The mark [15] stands for this setting: A2780, MTT, 72 h, reposted from previous paper.

As to `CCOC1(c2ccccc2)Oc2ccccc2C(=O)C1=N.CCOC1(c2ccccc2)Oc2ccccc2C(=O)C1=N.[Cl][Ru][Cl]` (stereo not drawn) [138 (3), cis-dichlorobis(3-imino-2-ethoxyflavanone)ruthenium(II)], the IC50 in the data set with Toledo-cis cells [1] was 2.8 ± 0.1 µM; with A2780cis cells [2] it was 1.5 ± 0.4 µM; in the data set on Toledo cells [4] (setting [14]), 0.6 ± 0.04 µM; with A2780 cells [7] (setting [15]), 1.8 ± 0.1 µM; in the data set on human lymphocytes [8], 1.6 ± 0.1 µM. Besides, in the data set with human lymphocytes [3], the “times less toxic for normal lymphocytes in comparison to cisplatin” value (“times less toxic for normal lymphocytes” for short) is 7 times. In addition, the “RF (IC50 Toledo-cis/IC50 Toledo)” value in the data set on Toledo-cis cells [5] is given as 4.6. For the same compound, in the data set with A2780cis cells [6], the “RF (IC50 A2780cis/IC50 A2780)” value is recorded as 0.8.

On to `COC1(c2ccccc2)Oc2ccccc2C(=O)C1=N.COC1(c2ccccc2)Oc2ccccc2C(=O)C1=N.[Cl][Ru][Cl]` (stereo not drawn) [134 (2), cis-dichlorobis(3-imino-2-methoxyflavanone)ruthenium(II)], for which the IC50 was 2.9 ± 0.2 µM with Toledo-cis cells [1]; 4.6 ± 0.2 µM with A2780cis cells [2]; 0.5 ± 0.1 µM in the data set on Toledo cells [4] (setting [14]); 2.5 ± 0.2 µM in the data set with A2780 cells [7] (setting [15]); 3.4 ± 0.3 µM in the data set with human lymphocytes [8]. In addition, the “times less toxic for normal lymphocytes” value in the data set on human lymphocytes [3] worked out at 3 times. In addition, the “RF (IC50 Toledo-cis/IC50 Toledo)” value in the data set with Toledo-cis cells [5] was 5.8. In the data set with A2780cis cells [6], the “RF (IC50 A2780cis/IC50 A2780)” value was determined as 1.8.

Consider `N.N.[Cl][Pt][Cl]` [Cisplatin (1), cis-diamminedichloroplatinum (II), reference compound], for which the IC50 in the data set with Toledo-cis cells [1] is 8.3 ± 0.6 µM; in the data set with A2780cis cells [2], 16.8 ± 1.5 µM; in the data set on Toledo cells [4] (setting [14]), 0.5 ± 0.07 µM; in the data set on Toledo cells [4], below 1 µM; with A2780 cells [7] (setting [15]), 0.2 ± 0.1 µM; in the data set on A2780 cells [7] (A2780, text value), below 1 µM. Besides, the IC50 in the data set with human lymphocytes [8] is 0.2 ± 0.1 µM. For the same compound, the “loss of mitochondrial membrane potential” value with A2780 and A2780cis cells [9] was “much lower influence”. Further, in the data set on A2780 and A2780cis cells [10], the “percentage of Ann-V positive cells” value was “did not cause similar changes”. Besides, the entries for the “RF (IC50 Toledo-cis/IC50 Toledo)” value in the data set on Toledo-cis cells [5] and with Toledo-cis cells [5] (listed as cisplatin) were 17 and “about 17”, respectively. The “RF (IC50 A2780cis/IC50 A2780)” value in the data set with A2780cis cells [6] is on record as 84.

For `Nc1c(-c2ccccc2)oc2ccccc2c1=O.Nc1c(-c2ccccc2)oc2ccccc2c1=O.[Cl][Pt][Cl]` [TCAP(4), trans-dichlorobis(3-aminoflavone)platinum(II)], in the data set on A2780 and A2780cis cells [9], the “loss of mitochondrial membrane potential” value was “much lower influence”. Besides, the IC50 in the data set with A2780 cells [11] is 6.5 ± 0.3 µM; with human lymphocytes [3], 11.9 ± 0.7 µM; in data set [12], 6.5 to 15.1 µM; in the data set with Toledo cells [13] it was 8.8 ± 0.8 µM; in the data set on Toledo-cis cells [5] it was 12.6 ± 1.2 µM; with A2780cis cells [6], 15.1 ± 0.6 µM. The “times less toxic for normal lymphocytes” value in the data set with human lymphocytes [3] turned out to be 60 times. The “percentage of Ann-V positive cells” value in the data set on A2780 and A2780cis cells [10] was “did not cause similar changes”. Further, the “RF (IC50 Toledo-cis/IC50 Toledo)” value in the data set on Toledo-cis cells [5] was found to be 1.4. Moreover, the “RF (IC50 A2780cis/IC50 A2780)” value with A2780cis cells [6] was 2.3.

Consider `Nc1c(-c2ccccc2)oc2ccccc2c1=O` [Ligand, 3-aminoflavone, reference compound], for which the IC50 in the data set with A2780 cells [11] (Homo sapiens) is above 100 µM; with human lymphocytes [3] (Homo sapiens, Lymphocyte) it was above 100 µM; in the data set on Toledo cells [13] (Homo sapiens), above 100 µM; in the data set with Toledo-cis cells [5] (Homo sapiens) it was above 100 µM; with A2780cis cells [6] (Homo sapiens), above 100 µM.
